In US10307357B2, “Prebiotic oral care compositions containing an alkyl glycoside” (COLGATE-PALMOLIVE COMPANY, priority 2013, dated 2019):

Assays:
Assay type in all cases: cell-based
[1] = system: beneficial oral bacteria and pathogenic oral bacteria; assay: Twenty-four hour biofilm growth, conclusion over the panel; conditions: threshold 1.6
Description: Substrates that were able to increase the biofilm mass of at least one of the above beneficial bacteria while not or only minimally increasing the biofilm mass of the pathogenic bacteria are considered to be prebiotic compounds. The increase in biofilm formation of the tested bacteria in response to selected glycosides (β-methyl-D-galactoside and α-methyl-D-galactoside) was investigated by setting up biofilm growth assays in a nutritionally rich medium (brain heart infusion broth (BHI), Oxoid), over 24 hours. Late exponential growth phase liquid cultures were prepared by transferring the respective bacterium from blood agar plates to BHI and overnight incubation at 37° C. in an anaerobic atmosphere for A. viscosus, V. parvula, P. gingivalis, P. intermedia, T. forsythia, A. naeslundii, and C. sputigena, and in a 5% CO2 environment for S. salivarius, S. sanguinis, S. mitis, A. actinomycetemcomitans, S. mutans, and S. gordonii. […] Quantification of the stained biofilm was performed by measuring the absorbance at 630 nm using a Multiskan Ascent microplate reader (Thermo Scientific). […] For each day and for each combination, the average (mean) of the values obtained (as detailed above) for the four technical replicas was calculated to provide a single value for each combination on each day. […]

[2] = system: Porphyromonas gingivalis; assay: Mixed culture (dual-species) competition, selective plating; conditions: C: with S. salivarius; after only 24 h
Method: (§1) The pathogenic species Prevotella intermedia, Aggregatibacter actinomyctemcomitans, Porphyromonas gingivalis, Fusobacterium nucleatum, Streptococcus mutans and beneficial species Streptococcus salivarius are used as model organisms for experiments. Bacterial strains are grown on blood agar plates (Oxoid, Basingstoke, UK) supplemented with 5 μg/ml hemin (Sigma Chemical Co, St. Louis, Mo.), 1 μg/ml menadion and 5% sterile horse blood (Biotrading, Keerbergen, Belgium). Bacteria are collected from blood agar plates and transferred to 10 ml brain heart infusion broth (BHI) (Difco Laboratories, Detroit, Mich.). P. intermedia, P. gingivalis, and F. nucleatum were incubated overnight at 37° C. in an anaerobic atmosphere, A. actinomycetemcomitans, S. mutans and S. salivarius are incubated overnight at 37° C. in a 5% CO2 environment. Bacterial concentration is adjusted by measuring optical density at 600 nm.
(§2) In vitro effect of β-methyl-D-galactoside on pathogens: Bacterial solutions of periodontopathogens, P. intermedia, F. nucleatum, A. actinomycetemcomitans and P. gingivalis, cariogenic species S. mutans and beneficial species, S. salivarius, are prepared of which the optical density was adjusted to 1×10^7 CFU/ml. Experiments are carried out as a dual-species model in 24 well plates containing one pathogen (1 ml) and S. salivarius (1 ml). Different conditions are tested: the two microorganisms with (C) or without (D) β-methyl-D-galactoside (200 μl, dissolved in AD (aqua distillata)), only the periodontopathogen with (B) or without (A) β-methyl-D-galactoside (200 μl). β-methyl-D-galactoside is used at a final concentration of 1 mg/ml. When S. salivarius is not added to the mixture, BHI is added to obtain an equal volume. When β-methyl-D-galactoside is not added to the mixture, AD was added to obtain an equal volume. Plates are incubated at 37° C. in an anaerobic atmosphere. Selective microbial plating is carried out at 0 h, 24 h, and 48 h. Selective agar plates are prepared for each bacterium. P. intermedia and P. gingivalis are cultured on CDC anaerobe 5% sheep blood agar (Becton Dickinson, Franklin Lakes, N.J.), A. actinomycetemcomitans on Tryptic soy serum bacitracin vancomycin agar (TSBV) (Oxoid, Basingstoke, UK), F. nucleatum on crystal violet erythromycin (CVE) agar (Oxoid, Basingstoke, UK), S. mutans on tryptone yeast extract cystine sucrose bacitracin (TYCSB) agar (Oxoid, Basingstoke, UK) and S. salivarius on Phenylethyl alcohol agar (Becton Dickinson, Franklin Lakes, N.J.).
(§3) Statistical analysis: For statistical analysis of the data, the data are log10 transformed to obtain a normal distribution. A linear mixed model is built to assess differences between treatments. A correction for multiple hypothesis testing is carried out.

[3] = system: Streptococcus mutans; assay: as above; conditions: β-methyl-D-galactoside and S. salivarius present; p=0.9999
Method: as §1, §2, §3

[4] = system: Fusobacterium nucleatum; assay: as above; conditions: C: with S. salivarius; after 48 h
Method: as §1, §2, §3

[5] = system: Prevotella intermedia; assay: as above; conditions: C: with S. salivarius; after 48 h
Method: as §1, §2, §3

[6] = system: Aggregatibacter actinomycetemcomitans; assay: as above; conditions: C: with S. salivarius; after only 24 h
Method: as §1, §2, §3

[7] = system: periodontopathogens; assay: Mixed culture competition, conclusion over periodontopathogens; conditions: S. salivarius and β-methyl-D-galactoside added (C) compared with A, B, after 24 h and 48 hours, p<0.001
Method: as §1
In vitro effect of β-methyl-D-galactoside on pathogens: Bacterial solutions of periodontopathogens, P. intermedia, F. nucleatum, A. actinomycetemcomitans and P. gingivalis, cariogenic species S. mutans and beneficial species, S. salivarius, are prepared of which the optical density was adjusted to 1×10^7 CFU/ml. Experiments are carried out as a dual-species model in 24 well plates containing one pathogen (1 ml) and S. salivarius (1 ml). […]

SMILES	prebiotic effect (biofilm growth), in words ([1]; at concentrations of 5, 10, and 20 μmol/ml)	concentration of pathogen, in words [2]	reduction of pathogen, in words [3]	pathogen numbers, in words [4]	pathogen numbers, in words [5]	concentration of pathogen, in words [6]	number of periodontopathogens, in words [7]	prebiotic effect (biofilm growth), in words ([1]; at concentrations of 5, 10, 20 and 25 μmol/ml)
CO[C@H]1O[C@H](CO)[C@H](O)[C@H](O)[C@H]1O [α-methyl-D-galactoside]	exhibited prebiotic effects	–	–	–	–	–	–	–
CO[C@@H]1O[C@H](CO)[C@H](O)[C@H](O)[C@H]1O [β-methyl-D-galactoside]	–	decline in concentration to zero	no reduction is observed	significantly lower but remained slightly above zero	significantly lower but remained slightly above zero	decline in concentration to zero	significant decrease	exhibited prebiotic effects
